Experimental data taken from US10065990B2, “Cyclic peptide compound, and preparation method, pharmaceutical composition and use thereof” (HANGZHOU GUANYU BIO-MEDICAL CO., LTD, priority 2013, dated 2018).
Like-named read-outs stand apart in the source and are kept apart here.

Columns and labels:
[1] = molecular target: T1, HDAC7 (Homo sapiens, UniProt Q8WUI4); experiment: HDAC biochemical activity measurement (fluorescent substrate deacetylation);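 also: fluorogenic deacetylation assay using acetyl-lysine substrate at 20 µM, enzyme and compound incubated 30 min at 37 °C, then developer added, fluorescence read at 360/460 nm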; conditions: HDAC7; 37° C. 30 minutes
T1 sequence (Q8WUI4 1-952): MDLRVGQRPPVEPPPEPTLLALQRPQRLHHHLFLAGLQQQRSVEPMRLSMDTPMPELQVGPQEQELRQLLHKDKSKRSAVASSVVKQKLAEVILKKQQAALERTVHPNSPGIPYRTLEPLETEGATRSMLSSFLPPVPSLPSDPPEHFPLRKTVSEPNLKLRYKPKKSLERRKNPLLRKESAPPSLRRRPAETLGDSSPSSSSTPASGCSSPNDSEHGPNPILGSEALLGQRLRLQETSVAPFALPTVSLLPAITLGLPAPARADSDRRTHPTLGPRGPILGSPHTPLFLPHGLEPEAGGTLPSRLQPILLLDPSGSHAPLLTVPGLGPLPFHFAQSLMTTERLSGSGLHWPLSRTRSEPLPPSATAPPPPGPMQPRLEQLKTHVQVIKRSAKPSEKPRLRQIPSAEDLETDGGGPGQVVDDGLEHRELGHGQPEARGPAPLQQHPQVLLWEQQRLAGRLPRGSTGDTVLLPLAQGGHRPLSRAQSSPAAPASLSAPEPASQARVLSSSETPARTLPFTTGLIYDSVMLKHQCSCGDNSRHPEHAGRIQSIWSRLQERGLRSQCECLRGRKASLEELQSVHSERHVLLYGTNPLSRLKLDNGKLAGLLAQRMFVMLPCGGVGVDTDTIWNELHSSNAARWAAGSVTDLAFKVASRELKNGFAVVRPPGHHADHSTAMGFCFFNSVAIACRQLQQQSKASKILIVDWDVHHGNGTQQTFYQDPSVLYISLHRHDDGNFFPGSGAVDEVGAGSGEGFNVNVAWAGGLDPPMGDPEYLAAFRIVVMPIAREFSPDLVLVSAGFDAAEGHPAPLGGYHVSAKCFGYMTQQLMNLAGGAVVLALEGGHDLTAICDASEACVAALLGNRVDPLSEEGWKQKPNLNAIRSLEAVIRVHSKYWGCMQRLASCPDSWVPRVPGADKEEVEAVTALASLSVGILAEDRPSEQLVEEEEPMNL
Method: The chemical activity of the compound is determined according to the degree of deacetylation inhibition of the HDAC enzyme. This experiment measured the degree of deacetylation related to tumor proliferation and metastasis of HDAC1, HDAC2, HDAC3, HDAC8, HDAC11 five subtypes HDAC enzymes. After the substrate containing an acetylated lysine side chain and HDAC enzyme are labeled with a fluorescent label, the fluorescent substrate is de acetyl. The fluorescent labeled substrate is cleaved by the enzyme, and the fluorescent substance is released, which generates 460 nm emission light under the excitation of 360 nm light.
HDAC substrate was diluted with reaction buffer to 200M (reaction concentration of 20M), the HDAC enzyme was diluted to the appropriate concentration, then added different concentrations of the test compounds and acted at 37° C. 30 minutes, and then added the same volume of 2-times concentration substrate developing solution (developer), incubated at room temperature for 15 minutes. Finally, the last reading measured with a microplate plate reader, excitation light was 360 nm, the emitted light was 460 nm, data processing software was Prime 4, and the results are shown in Table 1.

[2] = system: A549 (human lung cancer cells); experiment: MTT cancer cell growth inhibition; format: cell-based; conditions: Homo sapiens, A549, 72 h, MTT, 72 hours incubation, read-out: GI50 A54
Method in brief: (§1)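 GI50 values come from MTT viability: after 72 h compound exposure (final 10^−5–10^−10 M, three wells each) of cells plated overnight at 1500/well in 10% FBS medium, MTT was given for 4 h. The DMSO-solubilised formazan was then measured at 570 nm.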

[3] = system: BGC-823 (human gastric cancer cells); experiment: MTT cancer cell growth inhibition; format: cell-based; conditions: Homo sapiens, BGC-823, 72 h, MTT, 72 hours incubation, read-out: GI50 BG
Method in brief: as §1

[4] = system: Bel-7402 (human hepatoma cells); experiment: MTT cancer cell growth inhibition; format: cell-based; conditions: Homo sapiens, Bel-7402, 72 h, MTT, 72 hours incubation, Bel-7402 cells; read-out: GI50 Bel-7402
Method in brief: as §1

[5] = system: DU145 (human prostate cancer cells); experiment: MTT cancer cell growth inhibition; format: cell-based; conditions: Homo sapiens, DU-145, 72 h, MTT, 72 hours incubation, read-out: GI50 Du1
Method in brief: as §1

[6] = system: H1975 (non-small cell lung adenocarcinoma); experiment: MTT cancer cell growth inhibition; format: cell-based; conditions: Homo sapiens, NCI-H1975, 72 h, MTT, 72 hours incubation, H1975 cells; read-out: GI50 H1975
Method in brief: as §1

[7] = system: HCC827 (human non-small cell lung cancer cells); experiment: MTT cancer cell growth inhibition; format: cell-based; conditions: Homo sapiens, HCC827, 72 h, MTT, 72 hours incubation, HCC827 cells; read-out: GI50 HCC827
Method in brief: as §1

[8] = system: HT1080 (human fibrosarcoma cells); experiment: MTT cancer cell growth inhibition; format: cell-based; conditions: Homo sapiens, HT-1080, 72 h, MTT, 72 hours incubation, read-out: GI50 HT1
Method in brief: as §1

[9] = system: Hela (human cervical cancer cells); experiment: MTT cancer cell growth inhibition; format: cell-based; conditions: Homo sapiens, HeLa, 72 h, MTT, 72 hours incubation, read-out: GI50 Hela
Method in brief: as §1

[10] = system: Huh-7 (human hepatoma cells); experiment: MTT cancer cell growth inhibition; format: cell-based; conditions: Homo sapiens, Huh-7, 72 h, MTT, 72 hours incubation, Huh-7 cells; read-out: GI50 Huh-7
Method in brief: as §1

[11] = system: K562 (human leukemia cells); experiment: MTT cancer cell growth inhibition; format: cell-based; conditions: Homo sapiens, K562, 72 h, MTT, 72 hours incubation, K562 cells; read-out: GI50 K562
Method in brief: as §1

[12] = system: KBM-5 (human chronic myelogenous leukemia); experiment: MTT cancer cell growth inhibition; format: cell-based; conditions: Homo sapiens, KBM5, 72 h, MTT, 72 hours incubation, KBM-5 cells; read-out: GI50 KBM-5
Method in brief: as §1

[13] = system: KBM5-T315I (human chronic myelogenous leukemia); experiment: MTT cancer cell growth inhibition; format: cell-based; conditions: Homo sapiens, 72 h, MTT, 72 hours incubation, KBM5-T315I cells; read-out: GI50 KBM5-T315I
Method in brief: as §1

[14] = system: MCF-7 (human breast cancer cells); experiment: MTT cancer cell growth inhibition; format: cell-based; conditions: Homo sapiens, MCF7, 72 h, 72 hours incubation, read-out: GI50 MCF
Method in brief: as §1

[15] = system: MDA-MB-231 (breast cancer cells); experiment: MTT cancer cell growth inhibition; format: cell-based; conditions: Homo sapiens, MDA-MB-231, 72 h, read-out: GI50 MDA-MB-231, MTT, 72 hours incubation, MDA-MB-231 cells
Method in brief: as §1

[16] = system: MOLT-4 (human acute lymphoblastic leukemia cells); experiment: MTT cancer cell growth inhibition; format: cell-based; conditions: Homo sapiens, MOLT-4, 72 h, MTT, 72 hours incubation, read-out: GI50 Mol
Method in brief: as §1

[17] = system: N-87 (human gastric cancer cells); experiment: MTT cancer cell growth inhibition; format: cell-based; conditions: Homo sapiens, 72 h, MTT, 72 hours incubation, N-87 cells; read-out: GI50 N-87
Method in brief: as §1

[18] = system: PANC-1 (Pac-1, human pancreatic cancer cells); experiment: MTT cancer cell growth inhibition; format: cell-based; conditions: Homo sapiens, PANC-1, 72 h, MTT, 72 hours incubation, read-out: GI50 PAN
Method in brief: as §1

[19] = system: SGC-7901 (human gastric cancer cells); experiment: MTT cancer cell growth inhibition; format: cell-based; conditions: Homo sapiens, SGC-7901, 72 h, MTT, 72 hours incubation, SGC-7901 cells; read-out: GI50 SGC-7901
Method in brief: as §1

[20] = system: U937 (human leukemia cells); experiment: MTT cancer cell growth inhibition; format: cell-based; conditions: Homo sapiens, U-937, 72 h, MTT, 72 hours incubation, read-out: GI50 U93
Method in brief: as §1

[21] = system: lncap (prostate cancer cells); experiment: MTT cancer cell growth inhibition; format: cell-based; conditions: Homo sapiens, LNCaP, 72 h, MTT, 72 hours incubation, read-out: GI50 lnca
Method in brief: as §1

Structure (SMILES)	IC50 HDAC7 [1]	GI50 [2] [nM]	GI50 [3] [nM]	GI50 [4] [nM]	GI50 [5] [nM]	GI50 [6] [nM]	GI50 [7] [nM]	GI50 [8] [nM]	GI50 [9] [nM]	GI50 [10] [nM]	GI50 [11] [nM]	GI50 [12] [nM]	GI50 [13] [nM]	GI50 [14] [nM]	GI50 [15] [nM]	GI50 [16] [nM]	GI50 [17] [nM]	GI50 [18] [nM]	GI50 [19] [nM]	GI50 [20] [nM]	further results
C=C1NC(=O)c2ccc(F)c(n2)CNC(=O)C[C@@H](/C=C/CCS)OC(=O)[C@H](C)NC1=O [Compound 142]	no activity	130	70	73	50	59	66	70	50	38	84	73	35	50	51	20	42	130	53	50	GI50 [21]: 110 nM
C/C=C1\NC(=O)c2ccc(F)c(n2)CNC(=O)C[C@@H](/C=C/CCS)OC(=O)[C@H](C(C)C)NC1=O [Compound 108]	no activity	40	20	76	20	33	93	80	70	43	59	11	24	30	49	20	34	80	36	30	GI50 [21]: 20 nM
C=C1NC(=O)c2cccc(n2)CNC(=O)C[C@@H](/C=C/CCS)OC(=O)[C@H](C)NC1=O [Compound 139]	no activity	50	60	43	80	15	34	70	70	51	47	69	21	10	67	90	25	70	57	50	GI50 [21]: 190 nM

The next lines start with results.

IC50 HDAC7 [1]	GI50 [2] [nM]	GI50 [3] [nM]	GI50 [4] [nM]	GI50 [5] [nM]	GI50 [6] [nM]	GI50 [7] [nM]	GI50 [8] [nM]	GI50 [9] [nM]	GI50 [10] [nM]	GI50 [11] [nM]	GI50 [12] [nM]	GI50 [13] [nM]	GI50 [14] [nM]	GI50 [15] [nM]	GI50 [16] [nM]	GI50 [17] [nM]	GI50 [18] [nM]	GI50 [19] [nM]	GI50 [20] [nM]	Structure (SMILES)	further results
no activity	50	50	82	30	39	82	80	60	37	38	61	74	70	37	30	59	80	59	30	C/C=C1\NC(=O)c2ccc(F)c(n2)CNC(=O)C[C@@H](/C=C/CCSC(C)=O)OC(=O)[C@H](CC)NC1=O [Example 59]	GI50 [21]: 30 nM
no activity			47		38	35			28	11	41	29		65		35		23		C/C=C1\NC(=O)c2ccc(SC)c(n2)CNC(=O)C[C@@H](/C=C/CCSC(=O)CCCCCC)OC(=O)[C@H](C(C)C)NC1=O [Compound 152]	GI50 ([2]; A549 cells): 50 nM; GI50 ([3]; BGC-823 cells): 50 nM; GI50 ([5]; DU145 cells): 60 nM; GI50 ([8]; HT1080 cells): 90 nM; GI50 ([9]; Hela cells): 60 nM; GI50 ([14]; MCF-7 cells): 60 nM; GI50 ([16]; MOLT-4 cells): 90 nM; GI50 ([18]; PANC-1 cells): 50 nM; GI50 ([20]; U937 cells): 50 nM; GI50 ([21]; lncap cells): 60 nM
no activity			82		33	39			49	84	42	39		34		75		63		C/C=C1\NC(=O)c2ncc(SC)c(n2)CNC(=O)C[C@@H](/C=C/CCSC(C)=O)OC(=O)[C@H](C)NC1=O [Compound 219]	GI50 ([2]; A549 cells): 30 nM; GI50 ([3]; BGC-823 cells): 50 nM; GI50 ([5]; DU145 cells): 50 nM; GI50 ([8]; HT1080 cells): 70 nM; GI50 ([9]; Hela cells): 90 nM; GI50 ([14]; MCF-7 cells): 60 nM; GI50 ([16]; MOLT-4 cells): 80 nM; GI50 ([18]; PANC-1 cells): 80 nM; GI50 ([20]; U937 cells): 70 nM; GI50 ([21]; lncap cells): 60 nM
no activity	270	90	91	70	63	29	60	910	77	34	43	37	1210	87	70	33	80	29	450	C/C=C1\NC(=O)c2cccc(n2)CNC(=O)C[C@@H](/C=C/CCS)OC(=O)[C@H](C)NC1=O [Example 29]	GI50 [21]: 50 nM
